Laboratory results published in patent US20230365561A1, “BETA-LACTAMASE INHIBITORS AND THEIR PREPARATION” (NINGXIA ACADEMY OF AGRICUL TURE AND FORESTRY SCIENCES, priority 2020, published 2023).
Counter-ions that a name gives are not always drawn. Like-named read-outs stand apart in the source and are kept apart here.

Experiments:
Type in all cases: cell-based
[1] = tested on: E. coli clinical isolate (strain 1); test: MIC by broth microdilution (alone and in combination with meropenam), strain 1; conditions: Escherichia coli, compound alone
Method in brief: (§1)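 Meropenem was diluted two-fold (0.125-64 mg/L final) in cation-adjusted Mueller-Hinton Broth II, with or without a constant 4 µg/mL of test compound. Bacteria were added at roughly 5x10^5 CFU/mL, plates incubated 37° C for 18-24 h, and growth inspected visually for the MIC.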

E. coli 8739 (strain 2) = test: MIC by broth microdilution (alone and in combination with meropenam), strain 2; conditions: Escherichia coli, compound alone
Method in brief: as §1

[2] = tested on: K. pneumoniae clinical isolate (strain 3); test: MIC by broth microdilution (alone and in combination with meropenam), strain 3; conditions: Klebsiella pneumoniae, compound alone
Method in brief: as §1

[3] = tested on: K. pneumoniae 700603 (strain 4); test: MIC by broth microdilution (alone and in combination with meropenam), strain 4; conditions: Klebsiella pneumoniae, compound alone
Method in brief: as §1

[4] = tested on: E. cloacae clinical isolate (strain 5); test: MIC by broth microdilution (alone and in combination with meropenam), strain 5; conditions: Enterobacter cloacae, compound alone
Method in brief: as §1

[5] = tested on: E. cloacae 700323 (strain 6); test: MIC by broth microdilution (alone and in combination with meropenam), strain 6; conditions: Enterobacter cloacae, compound alone
Method in brief: as §1

[6] = tested on: A. baumannii clinical isolate (strain 7); test: MIC by broth microdilution (alone and in combination with meropenam), strain 7; conditions: Acinetobacter baumannii, compound alone
Method in brief: as §1

[7] = tested on: A. baumannii 19606 (strain 8); test: MIC by broth microdilution (alone and in combination with meropenam), strain 8; conditions: Acinetobacter baumannii, compound alone
Method in brief: as §1

[8] = tested on: P. aeruginosa clinical isolate (strain 9); test: MIC by broth microdilution (alone and in combination with meropenam), strain 9; conditions: Pseudomonas aeruginosa, compound alone
Method in brief: as §1

[9] = tested on: P. aeruginosa 9027 (strain 10); test: MIC by broth microdilution (alone and in combination with meropenam), strain 10; conditions: Pseudomonas aeruginosa, compound alone
Method in brief: as §1

[10] = read-out: MIC, antibacterial activity of example alone

Measured: MIC

N=C(NC(=O)C1CCCCC1)[C@@H]1CC[C@@H]2CN1C(=O)N2OS(=O)(=O)[O-].[Na+] [Ex.37, Sodium (2S,5R)-2-(N-(cyclohexanecarbonyl)carbamimidoyl)-7-oxo-1,6-diazabicyclo[3.2.1]octan-6-yl Sulfate]
> 64 µg/mL: [1]; [10] | E. coli 8739 (strain 2); [10] | [2]; [10] | [3]; [10] | [4]; [10] | [5]; [10] | [6]; [10] | [7]; [10] | [8]; [10] | [9]; [10]

N=C(NC(=O)CC1CCOCC1)[C@@H]1CC[C@@H]2CN1C(=O)N2OS(=O)(=O)[O-].[Na+] [Ex.38, Sodium (2S,5R)-7-oxo-2-(N-(2-(tetrahydro-2H-pyran-4-yl)acetyl)carbamimidoyl)-1,6-diazabicyclo[3.2.1]octan-6-yl Sulfate]
> 64 µg/mL: [1]; [10] | E. coli 8739 (strain 2); [10] | [2]; [10] | [3]; [10] | [4]; [10] | [5]; [10] | [6]; [10] | [7]; [10] | [8]; [10] | [9]; [10]

N=C(NC(=O)Cn1ccnc1)[C@@H]1CC[C@@H]2CN1C(=O)N2OS(=O)(=O)[O-].[Na+] [Ex.39, Sodium (2S,5R)-2-(N-(2-(1H-imidazol-1-yl)acetyl)carbamimidoyl)-7-oxo-1,6-diazabicyclo[3.2.1]octan-6-yl Sulfate]
> 64 µg/mL: [1]; [10] | E. coli 8739 (strain 2); [10] | [2]; [10] | [3]; [10] | [4]; [10] | [5]; [10] | [6]; [10] | [7]; [10] | [8]; [10] | [9]; [10]

CC(=O)NC1CCC(C(=O)NC(=N)[C@@H]2CC[C@@H]3CN2C(=O)N3OS(=O)(=O)[O-])CC1.[Na+] (stereo partly drawn) [Ex.40, Sodium (2S,5R)-2-(N-(4-acetamidocyclohexane-1-carbonyl)carbamimidoyl)-7-oxo-1,6-diazabicyclo[3.2.1]octan-6-yl Sulfate]
> 64 µg/mL: [1]; [10] | E. coli 8739 (strain 2); [10] | [2]; [10] | [3]; [10] | [4]; [10] | [5]; [10] | [6]; [10] | [7]; [10] | [8]; [10] | [9]; [10]

CN1CCC(C(=O)NC(=N)[C@@H]2CC[C@@H]3CN2C(=O)N3OS(=O)(=O)[O-])CC1.[Na+] [Ex.41, Sodium (2S,5R)-2-(N-(1-methylpiperidine-4-carbonyl)carbamimidoyl)-7-oxo-1,6-diazabicyclo[3.2.1]octan-6-yl Sulfate]
> 64 µg/mL: [1]; [10] | E. coli 8739 (strain 2); [10] | [2]; [10] | [3]; [10] | [4]; [10] | [5]; [10] | [6]; [10] | [7]; [10] | [8]; [10] | [9]; [10]

CN1CCN(CC(=O)NC(=N)[C@@H]2CC[C@@H]3CN2C(=O)N3OS(=O)(=O)[O-])CC1.[Na+] [Ex.42, Sodium (2S,5R)-2-(N-(2-(4-methylpiperazin-1-yl)acetyl)carbamimidoyl)-7-oxo-1,6-diazabicyclo[3.2.1]octan-6-yl Sulfate]
> 64 µg/mL: [1]; [10] | E. coli 8739 (strain 2); [10] | [2]; [10] | [3]; [10] | [4]; [10] | [5]; [10] | [6]; [10] | [7]; [10] | [8]; [10] | [9]; [10]

N=C(N)NOCCC(=O)NC(=N)[C@@H]1CC[C@@H]2CN1C(=O)N2OS(=O)(=O)O [Ex.43, (2S,5R)-2-(N-(3-(guanidinooxy)propanoyl)carbamimidoyl)-7-oxo-1,6-diazabicyclo[3.2.1]octan-6-yl Hydrogen Sulfate]
> 64 µg/mL: [1]; [10] | E. coli 8739 (strain 2); [10] | [2]; [10] | [3]; [10] | [4]; [10] | [5]; [10] | [6]; [10] | [7]; [10] | [8]; [10] | [9]; [10]

N=C(NC(=O)c1nc(-c2ccccc2)cs1)[C@@H]1CC[C@@H]2CN1C(=O)N2OS(=O)(=O)[O-].[Na+] [Ex.44, Sodium (2S,5R)-7-oxo-2-(N-(4-phenylthiazole-2-carbonyl)carbamimidoyl)-1,6-diazabicyclo[3.2.1]octan-6-yl Sulfate]
> 64 µg/mL: [1]; [10] | E. coli 8739 (strain 2); [10] | [2]; [10] | [3]; [10] | [4]; [10] | [5]; [10] | [6]; [10] | [7]; [10] | [8]; [10] | [9]; [10]

N#Cc1ccc(C(=O)NC(=N)[C@@H]2CC[C@@H]3CN2C(=O)N3OS(=O)(=O)[O-])cc1.[Na+] [Ex.45, Sodium (2S,5R)-2-(N-(4-cyanobenzoyl)carbamimidoyl)-7-oxo-1,6-diazabicyclo[3.2.1]octan-6-yl Sulfate]
> 64 µg/mL: [1]; read-out: MIC | E. coli 8739 (strain 2); read-out: MIC | [2]; read-out: MIC | [3]; read-out: MIC | [4]; read-out: MIC | [5]; read-out: MIC | [6]; read-out: MIC | [7]; read-out: MIC | [8]; read-out: MIC | [9]; read-out: MIC

CC(=O)N1CCCC[C@@H]1C(=O)NC(=N)[C@@H]1CC[C@@H]2CN1C(=O)N2OS(=O)(=O)[O-].[Na+] [Ex.46, Sodium (2S,5R)-2-(N-((R)-1-acetylpiperidine-2-carbonyl)carbamimidoyl)-7-oxo-1,6-diazabicyclo[3.2.1]octan-6-yl Sulfate]
> 64 µg/mL: [1]; read-out: MIC | E. coli 8739 (strain 2); read-out: MIC | [2]; read-out: MIC | [3]; read-out: MIC | [4]; read-out: MIC | [5]; read-out: MIC | [6]; read-out: MIC | [7]; read-out: MIC | [8]; read-out: MIC | [9]; read-out: MIC

N=C(N)NOCCCC(=O)NC(=N)[C@@H]1CC[C@@H]2CN1C(=O)N2OS(=O)(=O)O [Ex.47, (2S,5R)-2-(N-(4-(guanidinooxy)butanoyl)carbamimidoyl)-7-oxo-1,6-diazabicyclo[3.2.1]octan-6-yl Hydrogen Sulfate]
> 64 µg/mL: [1]; read-out: MIC | E. coli 8739 (strain 2); read-out: MIC | [2]; read-out: MIC | [3]; read-out: MIC | [4]; read-out: MIC | [5]; read-out: MIC | [6]; read-out: MIC | [7]; read-out: MIC | [8]; read-out: MIC | [9]; read-out: MIC

N=C(NC(=O)c1ccncn1)[C@@H]1CC[C@@H]2CN1C(=O)N2OS(=O)(=O)[O-].[Na+] [Ex.48, Sodium (2S,5R)-7-oxo-2-(N-(pyrimidine-4-carbonyl)carbamimidoyl)-1,6-diazabicyclo[3.2.1]octan-6-yl Sulfate]
> 64 µg/mL: [1]; read-out: MIC | E. coli 8739 (strain 2); read-out: MIC | [2]; read-out: MIC | [3]; read-out: MIC | [4]; read-out: MIC | [5]; read-out: MIC | [6]; read-out: MIC | [7]; read-out: MIC | [8]; read-out: MIC | [9]; read-out: MIC

N=C(NC(=O)c1ccc(C(F)(F)F)cc1)[C@@H]1CC[C@@H]2CN1C(=O)N2OS(=O)(=O)[O-].[Na+] [Ex.49, Sodium (2S,5R)-7-oxo-2-(N-(4-(trifluoromethyl)benzoyl)carbamimidoyl)-1,6-diazabicyclo[3.2.1]octan-6-yl Sulfate]
> 64 µg/mL: [1]; read-out: MIC | E. coli 8739 (strain 2); read-out: MIC | [2]; read-out: MIC | [3]; read-out: MIC | [4]; read-out: MIC | [5]; read-out: MIC | [6]; read-out: MIC | [7]; read-out: MIC | [8]; read-out: MIC | [9]; read-out: MIC
